Experiment [1] has as its target Glutamate NMDA receptor. Description: Compound was evaluated in vitro in a cortical-wedge preparation for the antagonism of N-methyl-D-aspartate-induced responses. The class given is functional.
In the next experiment the test system is Mus musculus. Description: Tested for antagonism of NMDA induced lethality in neonatal mice (ip) and minimum effective dose (MED) was reported. As to conditions: read-out: MED. Type of experiment: functional.
The subject of a further experiment is Rattus norvegicus. The experiment can be described thus: Tested for antagonism of NMDA induced convulsions in neonatal rats (ip) and minimum effective dose (MED) was reported. The class given is functional. As to conditions: read-out: MED.
Experiment [2] concerns the target Glutamate NMDA receptor. The experiment can be described thus: In vitro binding affinity against N-methyl-D-aspartate glutamate receptor using [3H]CGS-19,755 ligand. Type of experiment: protein-complex assay.

Where only a bound is given, the exact number is not on record here.

Compound `O=C(O)[C@H]1C[C@@H](Cc2nnn[nH]2)CCN1` displayed an IC50 on Glutamate NMDA receptor [1] of 4.2 µM. Moreover, the minimal effective dose in the experiment on Mus musculus is 5 mg/kg; in the experiment on Rattus norvegicus it was 20 mg/kg.
Turning to `O=C(O)[C@@H]1C[C@H](CCc2nn[nH]n2)CCN1`, the IC50 on Glutamate NMDA receptor [2] stood at 2.28 µM; against Glutamate NMDA receptor [1], 8.1 µM. The minimal effective dose in the experiment with Mus musculus turned out to be 20 mg/kg; in the experiment on Rattus norvegicus, 100 mg/kg.
`O=C(O)[C@@H]1C[C@H](CCCCc2nn[nH]n2)CCN1` registered an IC50 on Glutamate NMDA receptor [2] of more than 10 µM. Also, the minimal effective dose in the experiment with Mus musculus was more than 160 mg/kg.
The compound `O=C(O)[C@@H]1C[C@H](CCCc2nn[nH]n2)CCN1` registered an IC50 against Glutamate NMDA receptor [1] of 12.4 µM. The figures for the minimal effective dose with Mus musculus and in the experiment on Rattus norvegicus were 10 mg/kg and 100 mg/kg, respectively.
Regarding `O=C(O)[C@H]1C[C@H](Cc2nn[nH]n2)CCN1`, the IC50 was 0.777 µM at Glutamate NMDA receptor [2] and 35.2 µM against Glutamate NMDA receptor [1]. Besides, in the experiment with Mus musculus, the minimal effective dose stood at 80 mg/kg.
In turn, `CN1CC[C@H](Cc2nn[nH]n2)C[C@@H]1C(=O)O` showed an IC50 on Glutamate NMDA receptor [2] of more than 10 µM. For the same compound, the minimal effective dose in the experiment on Mus musculus is more than 160 mg/kg.
`O=C(O)[C@@H]1C[C@H](CP(=O)(O)O)CCN1` [SELFOTEL]: half-maximal inhibition against Glutamate NMDA receptor [1] (IC50) was put at 1.7 µM. The minimal effective dose was 1.25 mg/kg in the experiment with Mus musculus and 5 mg/kg with Rattus norvegicus.

The values above are taken from ChEMBL document CHEMBL1125760, “4-(Tetrazolylalkyl)piperidine-2-carboxylic acids. Potent and selective N-methyl-D-aspartic acid receptor antagonists with a short duration of action” (J Med Chem, 1991).
